# From patent US8557816B2, “Aurora kinase modulators and method of use” (Amgen Inc., priority 2007, dated 2013)
# How the values were obtained:
# AuroraB = target: T1, AuroraB (Homo sapiens, UniProt Q96GD4); assay: AuroraB Homogeneous Time Resolved Fluorescent (HTRF) kinase assay; format: biochemical; conditions: average; read-out: AurB_IC50_IP (uM Avg)
# T1 construct: 20 μL of AuroraB FL H is for a final volume of 41 μL; His
# Outline: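 Full-length His-tagged kinase phosphorylates biotinylated Histone H3 (0.1 μM final) with ATP in pH 7.5 HEPES containing MgCl, MnCl, DTT and BSA for about 90 min. EDTA-containing detection mix with SA-APC and Eu-anti-phosphoHistone H3 then equilibrated about 60 min; HTRF read with 320 nm excitation, emissions 615/655 nm.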
# AuroraA-TPX2 = target: T2, AuroraA-TPX2 (Homo sapiens, UniProt O14965); assay: AuroraA-TPX2 Homogeneous Time Resolved Fluorescent (HTRF) kinase assay; format: biochemical; conditions: average; read-out: AurA_IC50_IP (uM Avg)
# T2 construct: 20 μL of AuroraA-TPX2 KD GST for a final volume of about 41 μL; GST
# T2 sequence (O14965 133-383 limits assumed): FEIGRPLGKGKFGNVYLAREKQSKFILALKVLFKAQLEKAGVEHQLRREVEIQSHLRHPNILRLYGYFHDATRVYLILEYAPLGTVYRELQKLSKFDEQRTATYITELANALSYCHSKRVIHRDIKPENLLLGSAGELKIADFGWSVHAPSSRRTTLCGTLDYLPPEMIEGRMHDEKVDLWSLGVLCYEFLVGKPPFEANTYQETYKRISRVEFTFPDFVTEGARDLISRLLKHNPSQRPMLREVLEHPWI
# T2 sequence (Q9ULW0 1-43 partner limits assumed): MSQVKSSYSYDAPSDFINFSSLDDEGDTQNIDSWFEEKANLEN
# Outline: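 HTRF read-out (Eu 615 nm to APC 655 nm) of phosphorylated biotin-PLK, detected with 0.02 nM europium anti-phosphoPLK antibody and 0.0005 mg/mL SA-APC after overnight equilibration.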
# T1 sequence (Q96GD4 whole entry): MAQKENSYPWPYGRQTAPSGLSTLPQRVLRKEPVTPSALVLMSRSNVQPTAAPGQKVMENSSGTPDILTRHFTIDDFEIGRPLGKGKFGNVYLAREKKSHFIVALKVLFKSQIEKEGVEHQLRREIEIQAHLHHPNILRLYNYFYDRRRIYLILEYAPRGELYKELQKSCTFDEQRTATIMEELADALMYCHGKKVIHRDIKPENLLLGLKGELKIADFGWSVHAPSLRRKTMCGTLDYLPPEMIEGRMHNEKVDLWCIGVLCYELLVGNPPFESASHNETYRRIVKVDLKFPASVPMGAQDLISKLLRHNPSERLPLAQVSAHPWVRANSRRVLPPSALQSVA
Compound,IC50 (AuroraB) [µM],IC50 (AuroraA-TPX2) [µM]
"COc1cnc2c(Oc3ccc(Cc4nnc(-c5ccc(C)cc5)c5ccccc45)cc3)ccnc2c1 [compound 126, 3-(methyloxy)-8-((4-((4-(4-methylphenyl)-1-phthalazinyl)methyl)phenyl)oxy)-1,5-naphthyridine]",0.017,0.388
"COc1cnc2c(Oc3ccc(Nc4nnc(-c5cccc(C)n5)c5ccccc45)cn3)ccnc2c1 [compound 128, N-(6-((7-(methyloxy)-1,5-naphthyridin-4-yl)oxy)-3-pyridinyl)-4-(6-methyl-2-pyridinyl)-1-phthalazinamine]",0.018,0.099
"COc1cc2nccc(Oc3ccc(Nc4nnc(-c5cccc(OC)n5)c5ccccc45)cc3)c2cn1 [compound 131, N-(4-((7-(methyloxy)-1,6-naphthyridin-4-yl)oxy)phenyl)-4-(6-(methyloxy)-2-pyridinyl)-1-phthalazinamine]",0.003,0.019
"Brc1ccc2c(Oc3ccc(Nc4nnc(-c5ccccc5)c5ccccc45)cc3)ccnc2c1 [compound 133, N-(4-((7-bromo-4-quinolinyl)oxy)phenyl)-4-phenyl-1-phthalazinamine]",0.028,0.494
"Brc1ccc2nccc(Oc3ccc(Nc4nnc(-c5ccccc5)c5ccccc45)cc3)c2c1 [compound 134, N-(4-((6-bromo-4-quinolinyl)oxy)phenyl)-4-phenyl-1-phthalazinamine]",0.024,0.176
"COc1cnc2c(Oc3ccc(Nc4nnc(-c5ccccc5)c5ccccc45)nc3)ccnc2c1 [compound 135, N-(5-((7-(methyloxy)-1,5-naphthyridin-4-yl)oxy)-2-pyridinyl)-4-phenyl-1-phthalazinamine]",0.012,0.063
"COc1cnc2c(Oc3ccc(Nc4nnc(-c5ccc(C)s5)c5ccccc45)cc3)ccnc2c1 [compound 138, N-(4-((7-(methyloxy)-1,5-naphthyridin-4-yl)oxy)phenyl)-4-(5-methyl-2-thienyl)-1-phthalazinamine]",0.013,0.018
"COc1cnc2c(Oc3ccc(Nc4nnc(-c5ccc(Cl)s5)c5ccccc45)cc3)ccnc2c1 [compound 140, 4-(5-chloro-2-thienyl)-N-(4-((7-(methyloxy)-1,5-naphthyridin-4-yl)oxy)phenyl)-1-phthalazinamine]",0.008,0.022
"COc1ccc(-c2nnc(Nc3ccc(Oc4ccnc5cc(C#N)ccc45)cc3)c3ccccc23)cc1 [compound 141, 4-((4-((4-(4-(methyloxy)phenyl)-1-phthalazinyl)amino)phenyl)oxy)-7-quinolinecarbonitrile]",0.004,0.019
"COc1cnc2c(Oc3ccc(Nc4ncc(-c5ccccc5)c5ccccc45)cc3)ccnc2c1 [compound 144, N-(4-((7-(methyloxy)-1,5-naphthyridin-4-yl)oxy)phenyl)-4-phenyl-1-isoquinolinamine]",0.02,0.061
"COc1cc2nccc(Oc3ccc(Nc4ncc(-c5ccccc5)c5ccccc45)cc3)c2cn1 [compound 145, N-(4-((7-(methyloxy)-1,6-naphthyridin-4-yl)oxy)phenyl)-4-phenyl-1-isoquinolinamine]",0.096,0.326
"COc1cnc2c(Oc3ccc(Nc4nnc(-c5ccc(C(F)(F)F)cc5)c5ccccc45)cc3)ccnc2c1 [compound 146, N-(4-((7-(methyloxy)-1,5-naphthyridin-4-yl)oxy)phenyl)-4-(4-(trifluoromethyl)phenyl)-1-phthalazinamine]",0.008,0.026
"N#Cc1ccc2c(Oc3ccc(Nc4nnc(-c5ccc(C(F)(F)F)cc5)c5ccccc45)cc3)ccnc2c1 [compound 147, 4-((4-((4-(4-(trifluoromethyl)phenyl)-1-phthalazinyl)amino)phenyl)oxy)-7-quinolinecarbonitrile]",0.011,0.025
"CCc1cc(-c2ccccc2)nnc1Nc1ccc(Oc2ncnc3cc(OC)c(OC)cc23)cc1 [compound 148, N-(4-((6,7-bis(methyloxy)-4-quinazolinyl)oxy)phenyl)-4-ethyl-6-phenyl-3-pyridazinamine]",0.016,0.062

# Results, then the molecule that gave them:
IC50 (AuroraB) [µM],IC50 (AuroraA-TPX2) [µM],Compound
0.003,0.018,"COc1cnc2c(Oc3ccc(Nc4nnc(-c5ccc(C)cn5)c5ccccc45)cc3)ccnc2c1 [compound 125, N-(4-((7-(methyloxy)-1,5-naphthyridin-4-yl)oxy)phenyl)-4-(5-methyl-2-pyridinyl)-1-phthalazinamine]"
0.009,0.241,"COc1cc2nccc(Oc3ccc(Nc4nnc(-c5cccc(C)n5)c5ccccc45)cn3)c2cn1 [compound 127, N-(6-((7-(methyloxy)-1,6-naphthyridin-4-yl)oxy)-3-pyridinyl)-4-(6-methyl-2-pyridinyl)-1-phthalazinamine]"
0.014,0.165,"COc1cncc(-c2nnc(Nc3ccc(Oc4ccnc5cc(OC)cnc45)cc3)c3ccccc23)c1 [compound 129, N-(4-((7-(methyloxy)-1,5-naphthyridin-4-yl)oxy)phenyl)-4-(5-(methyloxy)-3-pyridinyl)-1-phthalazinamine]"
0.1,0.654,"COc1cnc2c(Oc3ccc(Nc4nnc(-c5ccncc5OC)c5ccccc45)cc3)ccnc2c1 [compound 130, N-(4-((7-(methyloxy)-1,5-naphthyridin-4-yl)oxy)phenyl)-4-(3-(methyloxy)-4-pyridinyl)-1-phthalazinamine]"
0.005,0.022,"COc1cnc2c(Oc3ccc(Nc4nnc(-c5cccc(COC(C)=O)n5)c5ccccc45)cc3)ccnc2c1 [compound 132, (6-(4-((4-((7-(methyloxy)-1,5-naphthyridin-4-yl)oxy)phenyl)amino)-1-phthalazinyl)-2-pyridinyl)methyl acetate]"
0.016,0.037,"COc1cnc2c(Oc3ccc(Nc4nnc(-c5ccc6c(c5)CC(C)(C)O6)c5ccccc45)cc3)ccnc2c1 [compound 136, 4-(2,2-dimethyl-2,3-dihydro-1-benzofuran-5-yl)-N-(4-((7-(methyloxy)-1,5-naphthyridin-4-yl)oxy)phenyl)-1-phthalazinamine]"
0.018,0.091,"COc1cnc2c(Oc3ccc(Nc4nnc(-c5ccc(OC(C)C)cc5)c5ccccc45)cc3)ccnc2c1 [compound 137, 4-(4-((1-methylethyl)oxy)phenyl)-N-(4-((7-(methyloxy)-1,5-naphthyridin-4-yl)oxy)phenyl)-1-phthalazinamine]"
0.006,0.018,"COc1cccc(-c2nnc(Nc3ccc(Oc4ccnc5cc(OC)cnc45)cc3)c3ccccc23)c1 [compound 139, N-(4-((7-(methyloxy)-1,5-naphthyridin-4-yl)oxy)phenyl)-4-(3-(methyloxy)phenyl)-1-phthalazinamine]"
0.007,0.008,"COc1cnc2c(Oc3ccc(Nc4nnc(-c5ccc6sccc6c5)c5ccccc45)cc3)ccnc2c1 [compound 142, 4-(1-benzothien-5-yl)-N-(4-((7-(methyloxy)-1,5-naphthyridin-4-yl)oxy)phenyl)-1-phthalazinamine]"
0.009,0.012,"COc1cnc2c(Oc3ccc(Nc4nnc(-c5cc6ccccc6n5C)c5ccccc45)cc3)ccnc2c1 [compound 143, 4-(1-methyl-1H-indol-2-yl)-N-(4-((7-(methyloxy)-1,5-naphthyridin-4-yl)oxy)phenyl)-1-phthalazinamine]"
